Experimental data from patent publication US4806660A, “Aurone oxypropanolamines” (Pennwalt Corporation, priority 1988, dated 1989).
Where a name gives a salt, the structure may show the parent alone.

System: LTC4-induced contraction of guinea pig ileum
Test: Test for Inhibition of LTC4-Induced Guinea Pig Ilial Contractions
Details: Cavia porcellus, LTC4 6 nanomolar, isolated guinea pig ilial strips, four replicate tissues, read-out: Percent Inhibition of Contraction at the given Concentration of Test Compound; for inhibition at 1 µM: 1 μMolar; for inhibition at 5 µM: 5 μMolar; for inhibition at 10 µM: 10 μMolar; for inhibition at 50 µM: 50 μMolar
Description: Test for Inhibition of LTC4 -Induced Guinea Pig Ilial Contractions The evaluation of potential anti-allergic compounds for antagonism of the in vitro effects of LTC4 is conducted according to the following procedure. Guinea pig ilial strips are obtained from recently killed animals and hung in isolated tissue baths comprising a balanced solution of salts such as Krebs' solution. After allowing for one hour equilibration of the tissue in the bath, the gram tension (G.T.) on one tissue is arbitrarily set at one. LTC4 (6 nanomolar concentration) is then added to the tissue bath. This induces a long, sustained contraction of the tissue that is measured on the strip chart recorder (the G.T. increases to about 2). After the LTC4 -induced contraction has plateaued and remains stable, increasing amounts of the test compound are added to the bath. If the compound is effective, a decrease in the G.T. (ΔG.T.) from the LTC4 -induced value is seen (e.g., from 2 to 1.5). The percent inhibition at each concentration is calculated according to the formula: [formula] Four replicate tissues are run.

SMILES	inhibition at 1 µM	inhibition at 5 µM	inhibition at 10 µM	inhibition at 50 µM
CCCNCC(O)COc1ccc2c(c1)O/C(=C\c1ccccc1)C2=O (stereo not drawn) [Example 1, 6-[2-Hydroxy-3-(propylamino)propoxy]aurone Hydrochloride]	16%	44%	66%	135%
O=C1/C(=C/c2ccccc2)Oc2cc(OCC(O)CNC3CC3)ccc21 (stereo not drawn) [Example 3, 6-[3-(Cyclopropylamino)-2-hydroxypropoxy]aurone Hydrochloride]	25%	48%	65%	144%
CC(C)NCC(O)COc1ccc2c(c1)O/C(=C\c1ccccc1)C2=O (stereo not drawn) [Example 2, 6-[2-Hydroxy-3-(isopropylamino)propoxy]aurone Hydrochloride]	23%	48%	62%	154%
